# Legend:
# [1] = system: chickweed (Stellaria media L; STEME); experiment: Postemergence herbicidal activity, greenhouse, visual injury: chickweed; assay type: in vivo; design: key: visual injury, 0–100%: 0 = no injury, 100 = complete kill
# Procedure: (§1) Evaluation of Postemergence Herbicidal Safening in Cereal Crops
# (§2) Seeds of the desired test plant species were planted in Sun Gro MetroMix® 306 planting mixture, which typically has a pH of 6.0 to 6.8 and an organic matter content of about 30 percent, in plastic pots with a surface area of 103.2 square centimeters (cm^2). When required to ensure good germination and healthy plants, a fungicide treatment and/or other chemical or physical treatment was applied. The plants were grown for 7-36 days (d) in a greenhouse with an approximate 14-hour (h) photoperiod which was maintained at about 18° C. during the day and 17° C. during the night. Nutrients and water were added on a regular basis and supplemental lighting was provided with overhead metal halide 1000-Watt lamps as necessary. The plants were employed for testing when they reached the second or third true leaf stage.
# (§3) Weighed amounts of esters (methyl) or salts (TEA [triethylammonium], K [potassium]) of 4-amino-3-chloro-6-(4-chloro-2-fluoro-3-methoxyphenyl)pyridine-2-carboxylic acid (Compound 1) were dissolved in a volume of 97:3 volume/volume (v/v) acetone/dimethylsulfoxide (DMSO) to obtain stock solutions. […] The concentrated stock solutions were diluted with an aqueous mixture of 1.5% v/v of Agri-dex crop oil concentrate to provide the appropriate application rates. Compound requirements are based upon a 12 mL application volume at a rate of 187 liters per hectare (L/ha). Stocks solutions of the safeners were prepared following the same procedure. Spray solutions of the safeners and experimental compound mixtures were prepared by adding the stock solutions to the appropriate amount of dilution solution to form a 12 mL spray solution with active ingredients in two-way combinations. Formulated compounds were applied to the plant material with an overhead Mandel track sprayer equipped with 8002E nozzles calibrated to deliver 187 L/ha over an application area of 0.503 square meters (m^2) at a spray height of 18 inches (43 centimeters (cm)) above average plant canopy. Control plants were sprayed in the same manner with the solvent blank.
# (§4) The treated plants and control plants were placed in a greenhouse as described above and watered by sub-irrigation to prevent wash-off of the test compounds. After 20-22 d, the condition of the test plants as compared with that of the control plants was determined visually and scored on a scale of 0 to 100 percent where 0 corresponds to no injury and 100 corresponds to complete kill.
# (§5) Colby's equation was used to determine the herbicidal effects expected from the mixtures (Colby, S. R. Calculation of the synergistic and antagonistic response of herbicide combinations. Weeds 1967, 15, 20-22.).
# (§6) The following equation was used to calculate the expected activity of mixtures containing two active ingredients, A and B: Expected=A+B−(A×B/100)
# (§7) A=observed efficacy of active ingredient A at the same concentration as used in the mixture.
# (§8) B=observed efficacy of active ingredient B at the same concentration as used in the mixture.
# [2] = system: wild buckwheat (Polygonum convolvulus L; POLCO); experiment: Postemergence herbicidal activity, greenhouse, visual injury: wild buckwheat; assay type: in vivo
# Procedure: as §1, §2, §3, §4, §5, §6, §7, §8
# [3] = system: corn poppy (Papaver rhoeas L; PAPRH); experiment: Postemergence herbicidal activity, greenhouse, visual injury: corn poppy; assay type: in vivo
# Procedure: as §1, §2, §3, §4, §5, §6, §7, §8
# [4] = system: wheat (Triticum aestivum L; TRZAS); experiment: Postemergence herbicidal safening, greenhouse, visual injury: wheat; assay type: in vivo
# Procedure: as §1, §2, §3, §4, §5, §6, §7, §8
# [5] = system: wild pansy (Viola tricolor L; VIOTR); experiment: Postemergence herbicidal activity, greenhouse, visual injury: wild pansy; assay type: in vivo; design: key: visual injury, 0–100%: 0 = no injury, 100 = complete kill
# Procedure: as §1, §2, §3, §4, §5, §6, §7, §8
# [6] = system: wheat (Triticum aestivum L; TRZAW); experiment: Postemergence herbicidal safening, greenhouse, visual injury: wheat (TRZAW); assay type: in vivo
# Procedure: as §1, §2, §3, §4, §5, §6, §7, §8
# [7] = system: purple deadnettle (Lamium purpureum L; LAMPU); experiment: Postemergence herbicidal activity, greenhouse, visual injury: purple deadnettle; assay type: in vivo; design: key: visual injury, 0–100%: 0 = no injury, 100 = complete kill
# Procedure: as §1, §2, §3, §4, §5, §6, §7, §8
# [8] = system: Russian thistle (Salsola iberica L; SASKR); experiment: Postemergence herbicidal activity, greenhouse, visual injury: Russian thistle; assay type: in vivo; design: key: visual injury, 0–100%: 0 = no injury, 100 = complete kill
# Procedure: as §1, §2, §3, §4, §5, §6, §7, §8
# [9] = system: barley (HORVW); experiment: Postemergence herbicidal safening, greenhouse, visual injury: barley (HORVW)
# [10] = system: durum wheat (Triticum durum L; TRZDU); experiment: Postemergence herbicidal safening, greenhouse, visual injury: durum wheat; assay type: in vivo
# Procedure: as §1, §2, §3, §4, §5, §6, §7, §8
# [11] = system: cleavers (Galium aparine L; GALAP); experiment: Postemergence herbicidal activity, greenhouse, visual injury: cleavers; assay type: in vivo; design: key: visual injury, 0–100%: 0 = no injury, 100 = complete kill
# Procedure: as §1, §2, §3, §4, §5, §6, §7, §8
# [12] = system: barley (Hordeum vulgare L; HORVS); experiment: Postemergence herbicidal safening, greenhouse, visual injury: barley; assay type: in vivo
# Procedure: as §1, §2, §3, §4, §5, §6, §7, §8
# [13] = system: bird's-eye speedwell (Veronica persica L; VERPE); experiment: Postemergence herbicidal activity, greenhouse, visual injury: bird's-eye speedwell; assay type: in vivo; design: key: visual injury, 0–100%: 0 = no injury, 100 = complete kill
# Procedure: as §1, §2, §3, §4, §5, §6, §7, §8
compound,measurement,setting,value
"CC1COc2ccccc2N1C(=O)C(Cl)Cl (racemic) [Benoxacor, (±)-4-(dichloroacetyl)-3,4-dihydro-3-methyl-2H-1,4-benzoxazine, reference compound]",STEME Ob,[1]; applied alone at 17.5 g/ha,0%
same,STEME Ob,[1]; applied alone at 35 g/ha,0%
same,STEME Ob,[1]; applied alone at 70 g/ha,0%
same,STEME Ob,[1]; applied alone at 140 g/ha,0%
same,POLCO Ob,[2]; applied alone at 17.5 g/ha,0%
same,POLCO Ob,[2]; applied alone at 35 g/ha,0%
same,POLCO Ob,[2]; applied alone at 70 g/ha,0%
same,POLCO Ob,[2]; applied alone at 140 g/ha,0%
same,PAPRH Ob,[3]; applied alone at 17.5 g/ha,0%
same,PAPRH Ob,[3]; applied alone at 35 g/ha,0%
same,PAPRH Ob,[3]; applied alone at 70 g/ha,0%
same,PAPRH Ob,[3]; applied alone at 140 g/ha,0%
same,PAPRH Ob (Observed values),[3]; safener 4.4 g/ha alone,0
same,PAPRH Ob (Observed values),[3]; safener 8.8 g/ha alone,0
same,PAPRH Ob (Observed values),[3]; safener 17.5 g/ha alone,0
same,PAPRH Ob (Observed values),[3]; safener 35 g/ha alone,0
same,TRZAS Ob,[4]; applied alone at 17.5 g/ha,0%
same,TRZAS Ob,[4]; applied alone at 35 g/ha,0%
same,TRZAS Ob,[4]; applied alone at 70 g/ha,0%
same,TRZAS Ob,[4]; applied alone at 140 g/ha,0%
same,VIOTR Ob,[5]; applied alone at 17.5 g/ha,0%
same,VIOTR Ob,[5]; applied alone at 35 g/ha,0%
same,VIOTR Ob,[5]; applied alone at 70 g/ha,0%
same,VIOTR Ob,[5]; applied alone at 140 g/ha,0%
same,TRZAW Ob (Observed values),[6]; safener 4.4 g/ha alone,0%
same,TRZAW Ob (Observed values),[6]; safener 8.8 g/ha alone,0%
same,TRZAW Ob (Observed values),[6]; safener 17.5 g/ha alone,0%
same,TRZAW Ob (Observed values),[6]; safener 35 g/ha alone,0%
same,LAMPU Ob (Observed values),[7]; safener 4.4 g/ha alone,0
same,LAMPU Ob (Observed values),[7]; safener 8.8 g/ha alone,0
same,LAMPU Ob (Observed values),[7]; safener 17.5 g/ha alone,0
same,LAMPU Ob (Observed values),[7]; safener 35 g/ha alone,0
same,SASKR Ob,[8]; applied alone at 17.5 g/ha,0%
same,SASKR Ob,[8]; applied alone at 35 g/ha,0%
same,SASKR Ob,[8]; applied alone at 70 g/ha,0%
same,SASKR Ob,[8]; applied alone at 140 g/ha,0%
same,HORVW Ob (Observed values),[9]; safener 4.4 g/ha alone,0%
same,HORVW Ob (Observed values),[9]; safener 8.8 g/ha alone,0%
same,HORVW Ob (Observed values),[9]; safener 17.5 g/ha alone,0%
same,HORVW Ob (Observed values),[9]; safener 35 g/ha alone,0%
same,TRZDU Ob (Observed values),[10]; safener 4.4 g/ha alone,0%
same,TRZDU Ob (Observed values),[10]; safener 8.8 g/ha alone,0%
same,TRZDU Ob (Observed values),[10]; safener 17.5 g/ha alone,0%
same,TRZDU Ob (Observed values),[10]; safener 35 g/ha alone,0%
same,GALAP Ob,[11]; applied alone at 17.5 g/ha,0%
same,GALAP Ob,[11]; applied alone at 35 g/ha,0%
same,GALAP Ob,[11]; applied alone at 70 g/ha,0%
same,GALAP Ob,[11]; applied alone at 140 g/ha,0%
same,HORVS Ob,[12]; applied alone at 17.5 g/ha,0%
same,HORVS Ob,[12]; applied alone at 35 g/ha,0%
same,HORVS Ob,[12]; applied alone at 70 g/ha,0%
same,HORVS Ob,[12]; applied alone at 140 g/ha,0%
same,VERPE Ob,[13]; applied alone at 17.5 g/ha,0%
same,VERPE Ob,[13]; applied alone at 35 g/ha,0%
same,VERPE Ob,[13]; applied alone at 70 g/ha,0%
same,VERPE Ob,[13]; applied alone at 140 g/ha,0%

# Reference: patent publication US8921267B2, “Safening 6-(trisubstituted phenyl)-4-amino-2-pyridinecarboxylate herbicide injury on cereal crops” (Dow AgroSciences LLC, priority 2008, dated 2014)
